Experimental data: ChEMBL document CHEMBL1126862, “Substituted 3-phenylpiperidines: new centrally acting dopamine autoreceptor antagonists” (J Med Chem, 1993)

What was measured:
Rattus norvegicus [1] = species: Rattus norvegicus; assay: Evaluated for rat locomotor activity in nonpretreated habituated rats at 100 umol / kg; type: functional; design: unit not given beside the values
D(2) dopamine receptor [2] = target: T1, D(2) dopamine receptor (Bos taurus, UniProt P20288); assay: Binding towards Dopamine receptor D2 expressed in CHO-K1 cells using [3H]U-86170; type: cell-based
Rattus norvegicus [3] = assay: Evaluated for rat locomotor activity in nonhabituated rats at 213 umol / kg administered subcutaneously; type: functional
Rattus norvegicus [4] = assay: Evaluated for DOPA accumulation in striatum of nonpretreated rat at 25 umol / kg administered subcutaneously; type: functional
Rattus norvegicus [5] = assay: Evaluated in rat accumbens for the effect on DOPAC release and metabolism in brain dialysis model after administration of 50 umol / kg subcutaneously; type: functional
Rattus norvegicus [6] = assay: Evaluated for DOPA accumulation in limbic region of nonpretreated rat at 25 umol / kg administered subcutaneously; type: functional, Limbic system
Rattus norvegicus [7] = species: Rattus norvegicus; assay: Rat locomotor activity in reserpine pretreated rats and accumulated counts / 30 min is calculated; type: functional
Rattus norvegicus [8] = assay: Evaluated in rat striatum for the effect on DOPAC release and metabolism in brain dialysis model after administration of 50 umol / kg subcutaneously; type: functional; design: unit not given beside the values
Rattus norvegicus [9] = assay: Evaluated for 5-HTP increase in hemisphere region of nonpretreated rat at 27 umol / kg administered subcutaneously; type: functional
Rattus norvegicus [10] = assay: Evaluated in rat striatum for the effect on dopamine release and metabolism in brain dialysis model after administration of 50 umol / kg subcutaneously; type: functional; design: unit not given beside the values
D(4) dopamine receptor [11] = target: T2, D(4) dopamine receptor (Homo sapiens, UniProt P21917)
T2 sequence (P21917 whole entry): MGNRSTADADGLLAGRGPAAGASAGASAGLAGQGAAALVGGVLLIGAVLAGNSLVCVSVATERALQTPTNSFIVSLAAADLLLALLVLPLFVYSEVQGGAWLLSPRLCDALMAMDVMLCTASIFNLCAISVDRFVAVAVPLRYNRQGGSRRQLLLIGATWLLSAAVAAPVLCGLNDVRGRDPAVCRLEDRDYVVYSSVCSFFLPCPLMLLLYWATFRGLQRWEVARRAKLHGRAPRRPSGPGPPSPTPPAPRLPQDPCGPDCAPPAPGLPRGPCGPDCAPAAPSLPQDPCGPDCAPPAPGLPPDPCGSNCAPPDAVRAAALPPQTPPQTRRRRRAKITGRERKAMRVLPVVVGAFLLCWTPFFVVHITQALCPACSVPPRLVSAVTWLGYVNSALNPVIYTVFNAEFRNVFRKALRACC
Description: (§1) Binding towards dopamine receptor D4 expressed in CHO-K1 cells using [3H]spiperone

Rattus norvegicus [12] = species: Rattus norvegicus; assay: Evaluated for rat locomotor activity in nonhabituated rats at 25 umol / kg; type: functional
Rattus norvegicus [13] = assay: Evaluated for DOPA accumulation in limbic region of reserpine pretreated rat at 27 umol / kg administered subcutaneously; type: functional, Limbic system
Rattus norvegicus [14] = assay: Evaluated in rat accumbens for the effect on dopamine release and metabolism in brain dialysis model after administration of 50 umol / kg subcutaneously; type: functional
Rattus norvegicus [15] = assay: Evaluated for 5-HTP increase in limbic region of nonpretreated rat at 27 umol / kg administered subcutaneously; type: functional, Limbic system
D(2) dopamine receptor [16] = target: T1, D(2) dopamine receptor; assay: Evaluated for binding towards Dopamine receptor D2 using [3H]-spiperone as radioligand, in cloned mammalian receptors expressed in CHO-K1 cells; type: cell-based
Rattus norvegicus [17] = assay: Evaluated for 5-HTP increase in limbic region of nonpretreated rat at 52 umol / kg administered subcutaneously; type: functional, Limbic system
Rattus norvegicus [18] = assay: Evaluated for DOPA accumulation in striatum of nonpretreated rat at 52 umol / kg administered subcutaneously; type: functional
Rattus norvegicus [19] = assay: Evaluated for DOPA accumulation in limbic region of nonpretreated rat at 52 umol / kg administered subcutaneously; type: functional, Limbic system
Rattus norvegicus [20] = assay: Evaluated for 5-HTP increase in hemisphere region of nonpretreated rat at 100 umol / kg administered subcutaneously; type: functional
Rattus norvegicus [21] = assay: Evaluated for DOPA accumulation in striatum of nonpretreated rat at 100 umol / kg administered subcutaneously (p<0.05); type: functional
Rattus norvegicus [22] = assay: Evaluated for DOPA accumulation in striatum of reserpine pretreated rat at 100 umol / kg administered intraperitoneally; type: functional
Rattus norvegicus [23] = species: Rattus norvegicus; assay: Evaluated for rat locomotor activity in nonhabituated rats at 100 umol / kg; type: functional
Rattus norvegicus [24] = assay: Evaluated for DOPA accumulation in limbic region of reserpine pretreated rat at 100 umol / kg administered intraperitoneally (p<0.05); type: functional, Limbic system
Rattus norvegicus [25] = assay: Evaluated for 5-HTP increase in hemisphere region of nonpretreated rat at 100 umol / kg administered subcutaneously (p<0.05); type: functional
Rattus norvegicus [26] = species: Rattus norvegicus; assay: Rat locomotor activity in reserpine pretreated rats and accumulated counts / 30 min; type: functional
Rattus norvegicus [27] = species: Rattus norvegicus; assay: Evaluated for rat locomotor activity in nonpretreated habituated rats at 100 umol / kg (p<0.05); type: functional
[28] = target: T3, Sigma non-opioid intracellular receptor 1 (Rattus norvegicus, UniProt Q9R0C9); assay: Binding effinity for sigma receptor using 2 nM of [3H]DTG as radioligand, in membranes from brain minus cerebellum; type: tissue-based
Rattus norvegicus [29] = assay: Evaluated for 5-HTP increase in limbic region of nonpretreated rat at 100 umol / kg administered subcutaneously; type: functional, Limbic system
Rattus norvegicus [30] = species: Rattus norvegicus; assay: Evaluated for rat locomotor activity in nonpretreated habituated rats at 25 umol / kg (p<0.05); type: functional
Rattus norvegicus [31] = assay: Evaluated for DOPA accumulation in limbic region of nonpretreated rat at 100 umol / kg administered subcutaneously (p<0.05); type: functional, Limbic system
D(3) dopamine receptor = D(3) dopamine receptor (Homo sapiens, UniProt P35462)
Description: Binding towards Dopamine receptor D3 expressed in CHO-K1 cells using [3H]spiperone

Rattus norvegicus [32] = assay: Evaluated for DOPA accumulation in striatum of nonpretreated rat at 13 umol / kg administered subcutaneously; type: functional
Rattus norvegicus [33] = assay: Evaluated for rat locomotor activity in nonhabituated rats at 13 umol / kg administered intraperitoneally; type: functional
Rattus norvegicus [34] = species: Rattus norvegicus; assay: Evaluated for rat locomotor activity in nonpretreated habituated rats at 25 umol / kg; type: functional
D(2) dopamine receptor [35] = target: T4, D(2) dopamine receptor (Rattus norvegicus, UniProt P61169); assay: Evaluated for binding towards Dopamine receptor D2 using [3H]N-0437 as radioligand from rat striatal membrane
Rattus norvegicus [36] = assay: Evaluated for DOPA accumulation in limbic region of reserpine pretreated rat at 100 umol / kg administered intraperitoneally; type: functional, Limbic system
D(2) dopamine receptor [37] = target: T4, D(2) dopamine receptor; assay: Binding towards Dopamine receptor D2 using [3H]spiperone from rat striatal membrane
Rattus norvegicus [38] = assay: Evaluated for DOPA accumulation in limbic region of nonpretreated rat at 13 umol / kg administered subcutaneously; type: functional, Limbic system
Rattus norvegicus [39] = assay: Evaluated for DOPA accumulation in limbic region of nonpretreated rat at 100 umol / kg administered subcutaneously; type: functional, Limbic system
D(4) dopamine receptor [40] = target: T2, D(4) dopamine receptor; settings: cho-k1
Description: as §1

Rattus norvegicus [41] = assay: Evaluated for DOPA accumulation in limbic region of reserpine pretreated rat at 52 umol / kg administered subcutaneously; type: functional, Limbic system
Rattus norvegicus [42] = assay: Evaluated for DOPA accumulation in striatum of nonpretreated rat at 100 umol / kg administered subcutaneously; type: functional
Rattus norvegicus [43] = assay: Evaluated for DOPA accumulation in striatum of nonpretreated rat at 200 umol / kg administered subcutaneously; type: functional
Rattus norvegicus [44] = assay: Evaluated for DOPA accumulation in limbic region of nonpretreated rat at 200 umol / kg administered subcutaneously; type: functional, Limbic system
Rattus norvegicus [45] = assay: Evaluated for 5-HTP increase in limbic region of nonpretreated rat at 200 umol / kg administered subcutaneously; type: functional, Limbic system
Rattus norvegicus [46] = assay: Evaluated for rat locomotor activity in nonhabituated rats at 200 umol / kg administered subcutaneously; type: functional
Rattus norvegicus [47] = assay: Evaluated for 5-HTP increase in hemisphere region of nonpretreated rat at 200 umol / kg administered subcutaneously; type: functional
[48] = target: T3, Sigma non-opioid intracellular receptor 1; assay: Binding affinity for sigma receptor using 2 nM of [3H]DTG as radioligand, in membranes from brain minus cerebellum; type: tissue-based
[49] = Half life was estimated from the elimination phase of the blood concentration curves after peroral administration; type: ADME, organism-based; settings: po

Chain of D(3) dopamine receptor (P35462 whole entry): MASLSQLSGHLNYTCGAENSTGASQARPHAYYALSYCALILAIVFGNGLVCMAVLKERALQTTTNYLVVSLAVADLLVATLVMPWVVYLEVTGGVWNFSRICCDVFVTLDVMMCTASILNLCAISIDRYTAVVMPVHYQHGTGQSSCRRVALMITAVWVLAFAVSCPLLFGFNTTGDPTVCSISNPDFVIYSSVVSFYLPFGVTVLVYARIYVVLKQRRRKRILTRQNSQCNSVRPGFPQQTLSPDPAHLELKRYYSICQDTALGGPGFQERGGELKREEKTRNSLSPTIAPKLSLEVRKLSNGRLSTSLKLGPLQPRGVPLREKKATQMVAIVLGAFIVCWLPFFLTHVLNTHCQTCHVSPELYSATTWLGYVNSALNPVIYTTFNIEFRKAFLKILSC
T1 sequence (P20288 whole entry): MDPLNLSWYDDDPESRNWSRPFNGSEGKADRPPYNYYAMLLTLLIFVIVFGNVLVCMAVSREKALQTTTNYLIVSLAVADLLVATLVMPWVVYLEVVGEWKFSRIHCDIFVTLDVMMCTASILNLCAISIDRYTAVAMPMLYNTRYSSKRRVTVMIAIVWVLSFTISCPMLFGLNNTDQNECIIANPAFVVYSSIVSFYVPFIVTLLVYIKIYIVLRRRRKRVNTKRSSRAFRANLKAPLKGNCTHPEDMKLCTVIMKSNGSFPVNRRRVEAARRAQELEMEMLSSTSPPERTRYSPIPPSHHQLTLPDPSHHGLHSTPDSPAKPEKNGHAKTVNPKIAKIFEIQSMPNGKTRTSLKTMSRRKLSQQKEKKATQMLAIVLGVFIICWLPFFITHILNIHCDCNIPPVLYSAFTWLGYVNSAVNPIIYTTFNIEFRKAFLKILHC
T3 sequence (Q9R0C9 whole entry): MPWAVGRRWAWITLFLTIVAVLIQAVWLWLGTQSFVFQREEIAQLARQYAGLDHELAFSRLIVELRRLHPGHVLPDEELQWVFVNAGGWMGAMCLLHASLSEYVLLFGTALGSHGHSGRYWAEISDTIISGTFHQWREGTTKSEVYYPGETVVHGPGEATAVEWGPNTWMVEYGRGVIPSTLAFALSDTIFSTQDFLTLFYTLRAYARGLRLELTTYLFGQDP
T4 sequence (P61169 whole entry): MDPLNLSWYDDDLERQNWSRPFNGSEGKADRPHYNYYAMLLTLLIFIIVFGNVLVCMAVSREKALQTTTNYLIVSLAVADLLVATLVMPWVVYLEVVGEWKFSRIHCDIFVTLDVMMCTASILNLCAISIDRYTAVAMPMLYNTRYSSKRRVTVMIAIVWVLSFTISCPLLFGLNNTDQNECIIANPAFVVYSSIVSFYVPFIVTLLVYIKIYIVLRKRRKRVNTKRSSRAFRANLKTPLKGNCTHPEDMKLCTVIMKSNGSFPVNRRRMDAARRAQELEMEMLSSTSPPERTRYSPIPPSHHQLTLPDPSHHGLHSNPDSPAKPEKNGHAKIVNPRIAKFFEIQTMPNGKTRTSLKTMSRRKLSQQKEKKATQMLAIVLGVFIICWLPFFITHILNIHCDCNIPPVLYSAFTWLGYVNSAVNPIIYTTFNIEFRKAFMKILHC

Row | Structure (SMILES) | Activity (Rattus norvegicus [1]) | Ki (D(2) dopamine receptor [2]) [nM] | Activity (Rattus norvegicus [4]) | Activity (Rattus norvegicus [5]) | Activity (Rattus norvegicus [6]) | Activity (Rattus norvegicus [7]) | Activity (Rattus norvegicus [8]) | Activity (Rattus norvegicus [10]) | Ki (D(4) dopamine receptor [11]) [nM] | Activity (Rattus norvegicus [12]) | Activity (Rattus norvegicus [14]) | Ki (D(2) dopamine receptor [16]) [nM] | Activity (Rattus norvegicus [22]) | Activity (Rattus norvegicus [23]) | IC50 [28] [nM] | Activity (Rattus norvegicus [29]) | Ki (D(3) dopamine receptor) [nM] | Ki (D(2) dopamine receptor [35]) [nM] | Activity (Rattus norvegicus [36]) | Ki (D(2) dopamine receptor [37]) [nM] | other results
1 | CCCN1CCCC(c2cccc(O)c2)C1 (single isomer, unassigned; (-)) | 208 | 8.5 | 147 | 115 | 91 | 12 | 70 | 700 | 130 | 74 | 98 | 137 | – | – | – | – | – | – | – | – | Activity (Rattus norvegicus [3]): 40; Activity (Rattus norvegicus [9]): 87; Activity (Rattus norvegicus [13]): 30; Activity (Rattus norvegicus [15]): 89
2 | CCCN1CCCC(c2cccc(C#N)c2)C1 (racemic) | – | – | – | – | – | – | – | – | – | – | – | – | – | – | – | – | – | – | – | – | Activity (Rattus norvegicus [17]): 99; Activity (Rattus norvegicus [18]): 281; Activity (Rattus norvegicus [19]): 198; Activity (Rattus norvegicus [20]): 103
3 | CCCN1CCC[C@H](c2cccc(OS(=O)(=O)C(F)(F)F)c2)C1 | – | – | 92 | – | 93 | – | – | – | – | 115 | – | – | 80 | 95 | 6 | 86 | – | – | – | – | Activity (Rattus norvegicus [21]): 80; Activity (Rattus norvegicus [24]): 75; Activity (Rattus norvegicus [25]): 86; Activity (Rattus norvegicus [26]): 2; Activity (Rattus norvegicus [27]): 34; Activity (Rattus norvegicus [30]): 30; Activity (Rattus norvegicus [31]): 82
4 | CCCN(CCC)[C@@H]1CCc2c(OC)cccc2[C@@H]1C | 220 | 13 | – | 207 | – | 29 | 307 | 209 | 48 | – | 231 | 18 | 109 | 70 | – | – | 4 | 100 | 116 | 70 | Activity (Rattus norvegicus [32]): 270; Activity (Rattus norvegicus [33]): 140; Activity (Rattus norvegicus [34]): 220; Activity (Rattus norvegicus [18]): 370; Activity (Rattus norvegicus [19]): 245; Activity (Rattus norvegicus [38]): 180
5 | CCCN1CCCC(c2cccc(C#N)c2)C1 (single isomer, unassigned; (-)) | 719 | 119 | 285 | – | 204 | 12 | 299 | 295 | – | – | 294 | 889 | 105 | – | 2200 | 148 | 249 | 396 | – | 1140 | Activity (Rattus norvegicus [34]): 418; Activity (Rattus norvegicus [39]): 219; Ki (D(4) dopamine receptor [40]): > 933 nM; Activity (Rattus norvegicus [41]): 136; Activity (Rattus norvegicus [42]): 268
6 | CCCN1CCCC(c2cccc(O)c2)C1 (single isomer, unassigned; (+)) | – | 32 | 43 | – | 37 | 78 | 42 | 28 | > 1000 | 75 | – | 776 | – | – | – | – | – | – | 18 | – | Activity (Rattus norvegicus [3]): 230
7 | CCCN1CCCC(c2cccc(C#N)c2)C1 (single isomer, unassigned; (+)) | 559 | 1720 | 84 | – | 109 | 6 | – | – | > 933 | 104 | – | > 2000 | 81 | – | – | – | > 1420 | 4900 | – | 12600 | Activity (Rattus norvegicus [43]): 78; Activity (Rattus norvegicus [44]): 94; Activity (Rattus norvegicus [45]): 71; Activity (Rattus norvegicus [46]): 118; Activity (Rattus norvegicus [47]): 94; IC50 [48]: 520 nM; Activity (Rattus norvegicus [41]): 93
8 | CCCN1CCC[C@@H](c2cccc(OS(=O)(=O)C(F)(F)F)c2)C1 | – | – | 221 | 152 | 139 | 25 | 162 | 208 | – | 128 | 153 | – | 89 | 129 | 32 | 102 | – | – | 94 | – | half-life [49]: 3.5 h; Activity (Rattus norvegicus [20]): 108; Activity (Rattus norvegicus [42]): 264
